Calls of active or inactive are those of the source. No rule for the calls is given here.
Test system: rodent lifetime carcinogenesis bioassay, tumor incidence TD50
Assay: chronic cancer bioassays in animals – CPDB, compiled studies (AID 1745844)

## CBr
mouse, strain B6C3F1, females, inhaled, site: any site (literature study), lesion: several types, types named in the paper, dosed 75 weeks, study length 104 weeks
  carcinogen call: negative (inactive)
mouse, strain B6C3F1, males, inhaled, site: any site (literature study), lesion: several types, types named in the paper, dosed 75 weeks, study length 104 weeks
  carcinogen call: negative (inactive)
mouse, strain Crj:BDF1, females, inhaled, site: liver, lesion: hepatocellular adenoma, dosed 104 weeks, study length 105 weeks
  carcinogen call: negative (inactive)
mouse, strain Crj:BDF1, females, inhaled, site: liver, lesion: hepatocellular carcinoma, dosed 104 weeks, study length 105 weeks
  TD50: 23900 mg/kg/day (inactive)
mouse, strain Crj:BDF1, females, inhaled, site: lung, lesion: alveolar/bronchiolar adenoma, dosed 104 weeks, study length 105 weeks
  TD50: 6420 mg/kg/day (inactive)
mouse, strain Crj:BDF1, females, inhaled, site: lung, lesion: alveolar/bronchiolar carcinoma, dosed 104 weeks, study length 105 weeks
  carcinogen call: negative (inactive)
mouse, strain Crj:BDF1, females, inhaled, site: lymph node, lesion: malignant lymphoma, dosed 104 weeks, study length 105 weeks
  TD50: 845 mg/kg/day (inactive)
mouse, strain Crj:BDF1, males, inhaled, site: liver, lesion: hepatocellular adenoma, dosed 104 weeks, study length 105 weeks
  carcinogen call: negative (inactive)
mouse, strain Crj:BDF1, males, inhaled, site: liver, lesion: hepatocellular carcinoma, dosed 104 weeks, study length 105 weeks
  carcinogen call: negative (inactive)
mouse, strain Crj:BDF1, males, inhaled, site: lung, lesion: alveolar/bronchiolar adenoma, dosed 104 weeks, study length 105 weeks
  carcinogen call: negative (inactive)
mouse, strain Crj:BDF1, males, inhaled, site: lung, lesion: alveolar/bronchiolar carcinoma, dosed 104 weeks, study length 105 weeks
  carcinogen call: negative (inactive)
rat, strain F344/DuCrj, females, inhaled, site: adrenal gland, lesion: pheochromocytoma, dosed 104 weeks, study length 105 weeks
  TD50: 805 mg/kg/day (inactive)
rat, strain F344/DuCrj, females, inhaled, site: liver, lesion: hepatocellular adenoma, dosed 104 weeks, study length 105 weeks
  carcinogen call: negative (inactive)
rat, strain F344/DuCrj, females, inhaled, site: liver, lesion: hepatocellular carcinoma, dosed 104 weeks, study length 105 weeks
  carcinogen call: negative (inactive)
rat, strain F344/DuCrj, males, inhaled, site: liver, lesion: hepatocellular adenoma, dosed 104 weeks, study length 105 weeks
  carcinogen call: negative (inactive)
rat, strain F344/DuCrj, males, inhaled, site: liver, lesion: hepatocellular carcinoma, dosed 104 weeks, study length 105 weeks
  carcinogen call: negative (inactive)
rat, strain F344/DuCrj, males, inhaled, site: peritoneum, lesion: mesothelioma, malignant, dosed 104 weeks, study length 105 weeks
  TD50: 40.8 mg/kg/day (inactive)
rat, strain F344/DuCrj, males, inhaled, site: pituitary gland, lesion: adenoma, dosed 104 weeks, study length 105 weeks
  TD50: 31.8 mg/kg/day (inactive)
rat, strain Wistar-random, females, inhaled, site: any site (literature study), lesion: malignant tumor, dosed 129 weeks, study length 129 weeks
  carcinogen call: negative (inactive)
rat, strain Wistar-random, females, inhaled, site: any site (literature study), lesion: one or several types, types not named, dosed 129 weeks, study length 129 weeks
  carcinogen call: negative (inactive)
rat, strain Wistar-random, females, inhaled, site: liver, lesion: cholangiocarcinoma, dosed 129 weeks, study length 129 weeks
  carcinogen call: negative (inactive)
rat, strain Wistar-random, females, inhaled, site: liver, lesion: neoplastic nodule, dosed 129 weeks, study length 129 weeks
  TD50: 2240 mg/kg/day (inactive)
rat, strain Wistar-random, females, inhaled, site: nasal cavity, olfactory epithelium, lesion: one or several types, types not named, dosed 129 weeks, study length 129 weeks
  carcinogen call: negative (inactive)
rat, strain Wistar-random, females, inhaled, site: nasal cavity, respiratory epithelium, lesion: one or several types, types not named, dosed 129 weeks, study length 129 weeks
  carcinogen call: negative (inactive)
rat, strain Wistar-random, males, inhaled, site: any site (literature study), lesion: malignant tumor, dosed 128 weeks, study length 128 weeks
  carcinogen call: negative (inactive)
rat, strain Wistar-random, males, inhaled, site: any site (literature study), lesion: one or several types, types not named, dosed 128 weeks, study length 128 weeks
  carcinogen call: negative (inactive)
rat, strain Wistar-random, males, inhaled, site: liver, lesion: cholangiocarcinoma, dosed 128 weeks, study length 128 weeks
  carcinogen call: negative (inactive)
rat, strain Wistar-random, males, inhaled, site: liver, lesion: hepatocellular carcinoma, dosed 128 weeks, study length 128 weeks
  carcinogen call: negative (inactive)
rat, strain Wistar-random, males, inhaled, site: liver, lesion: neoplastic nodule, dosed 128 weeks, study length 128 weeks
  carcinogen call: negative (inactive)
rat, strain Wistar-random, males, inhaled, site: nasal cavity, olfactory epithelium, lesion: one or several types, types not named, dosed 128 weeks, study length 128 weeks
  carcinogen call: negative (inactive)
rat, strain Wistar-random, males, inhaled, site: nasal cavity, respiratory epithelium, lesion: fibrosarcoma, dosed 128 weeks, study length 128 weeks
  carcinogen call: negative (inactive)
rat, strain Wistar-random, males, inhaled, site: nasal cavity, respiratory epithelium, lesion: osteosarcoma, dosed 128 weeks, study length 128 weeks
  carcinogen call: negative (inactive)
rat, strain Wistar-random, males, inhaled, site: nasal cavity, respiratory epithelium, lesion: squamous-cell carcinoma, dosed 128 weeks, study length 128 weeks
  carcinogen call: negative (inactive)
rat, strain Wistar-random, males, inhaled, site: pituitary gland, lesion: hemorrhagic tumor, dosed 128 weeks, study length 128 weeks
  carcinogen call: negative (inactive)

## CCCNC(=O)NS(=O)(=O)c1ccc(Cl)cc1
mouse, strain B6C3F1, females, in feed, site: any site (literature study), lesion: several types, types named in the paper, dosed 104 weeks, study length 104 weeks
  carcinogen call: negative (inactive)
mouse, strain B6C3F1, females, in feed, site: lung, lesion: alveolar/bronchiolar adenoma + alveolar/bronchiolar carcinoma, dosed 104 weeks, study length 104 weeks
  TD50: 1440 mg/kg/day
mouse, strain B6C3F1, males, in feed, site: any site (literature study), lesion: several types, types named in the paper, dosed 104 weeks, study length 104 weeks
  carcinogen call: negative (inactive)
rat, strain Fischer 344, females, in feed, site: any site (literature study), lesion: several types, types named in the paper, dosed 104 weeks, study length 104 weeks
  carcinogen call: negative (inactive)
rat, strain Fischer 344, males, in feed, site: any site (literature study), lesion: several types, types named in the paper, dosed 103 weeks, study length 103 weeks
  carcinogen call: negative (inactive)

## COS(C)(=O)=O
mouse, strain RF, males, in drinking water, site: liver, lesion: one or several types, types not named, dosed 104 weeks, study length 104 weeks
  TD50: 3980 mg/kg/day (inactive)
mouse, strain RF, males, in drinking water, site: lung, lesion: adenoma, dosed 104 weeks, study length 104 weeks
  TD50: 31.8 mg/kg/day
mouse, strain RF, males, in drinking water, site: thymus gland, lesion: lymphoma, dosed 104 weeks, study length 104 weeks
  TD50: 185 mg/kg/day

## S=[Se]
mouse, strain B6C3F1, females, by gavage, site: any site (literature study), lesion: several types, types named in the paper, dosed 103 weeks, study length 104 weeks
  TD50: 69.7 mg/kg/day
mouse, strain B6C3F1, females, by gavage, site: liver + lung, lesion: hepatocellular adenoma + hepatocellular carcinoma + alveolar/bronchiolar adenoma + alveolar/bronchiolar carcinoma, dosed 103 weeks, study length 104 weeks
  TD50: 46.8 mg/kg/day
mouse, strain B6C3F1, females, by gavage, site: liver, lesion: hepatocellular adenoma + hepatocellular carcinoma + neoplastic nodule, dosed 103 weeks, study length 104 weeks
  TD50: 69.3 mg/kg/day
mouse, strain B6C3F1, females, by gavage, site: liver, lesion: hepatocellular adenoma + hepatocellular carcinoma, dosed 103 weeks, study length 104 weeks
  TD50: 69.3 mg/kg/day
mouse, strain B6C3F1, females, by gavage, site: liver, lesion: hepatocellular carcinoma, dosed 103 weeks, study length 104 weeks
  TD50: 85.2 mg/kg/day
mouse, strain B6C3F1, females, by gavage, site: lung, lesion: alveolar/bronchiolar adenoma + alveolar/bronchiolar carcinoma, dosed 103 weeks, study length 104 weeks
  TD50: 137 mg/kg/day
mouse, strain B6C3F1, females, by gavage, site: lung, lesion: alveolar/bronchiolar carcinoma, dosed 103 weeks, study length 104 weeks
  TD50: 433 mg/kg/day
mouse, strain B6C3F1, males, by gavage, site: any site (literature study), lesion: several types, types named in the paper, dosed 103 weeks, study length 104 weeks
  TD50: 735 mg/kg/day (inactive)
mouse, strain B6C3F1, males, by gavage, site: liver, lesion: hepatocellular adenoma + hepatocellular carcinoma + neoplastic nodule, dosed 103 weeks, study length 104 weeks
  TD50: 202 mg/kg/day
mouse, strain B6C3F1, males, by gavage, site: lung, lesion: alveolar/bronchiolar adenoma + alveolar/bronchiolar carcinoma, dosed 103 weeks, study length 104 weeks
  TD50: 183 mg/kg/day
rat, strain Fischer 344, females, by gavage, site: any site (literature study), lesion: several types, types named in the paper, dosed 103 weeks, study length 104 weeks
  TD50: 19.3 mg/kg/day
rat, strain Fischer 344, females, by gavage, site: liver, lesion: hepatocellular adenoma + hepatocellular carcinoma + neoplastic nodule, dosed 103 weeks, study length 104 weeks
  TD50: 6.14 mg/kg/day
rat, strain Fischer 344, females, by gavage, site: liver, lesion: hepatocellular carcinoma + neoplastic nodule, dosed 103 weeks, study length 104 weeks
  TD50: 6.14 mg/kg/day
rat, strain Fischer 344, females, by gavage, site: liver, lesion: hepatocellular carcinoma, dosed 103 weeks, study length 104 weeks
  TD50: 13.2 mg/kg/day
rat, strain Fischer 344, males, by gavage, site: any site (literature study), lesion: several types, types named in the paper, dosed 103 weeks, study length 104 weeks
  TD50: 25 mg/kg/day
rat, strain Fischer 344, males, by gavage, site: liver, lesion: hepatocellular adenoma + hepatocellular carcinoma + neoplastic nodule, dosed 103 weeks, study length 104 weeks
  TD50: 11.5 mg/kg/day
rat, strain Fischer 344, males, by gavage, site: liver, lesion: hepatocellular carcinoma + neoplastic nodule, dosed 103 weeks, study length 104 weeks
  TD50: 11.5 mg/kg/day
rat, strain Fischer 344, males, by gavage, site: liver, lesion: hepatocellular carcinoma, dosed 103 weeks, study length 104 weeks
  TD50: 21 mg/kg/day

Source: PubChem BioAssay AID1745844 (Carcinogenic Potency Database (CPDB), 2022)
